{"source": "patent US6384049B1", "about": "“Cancer treatment” (The Procter & Gamble Company, priority 2000, dated 2002)", "tested_on": "HT29, a colon cancer tumor line", "assay": "HT29 colon cancer tumor in nude mouse, average tumor weight", "format": "in vivo", "procedure": "Imidazo [4,5-b]pyridine-2-carbamic acid, methyl ester was used to treat HT29, a colon cancer tumor line, in nude mouse. The average tumor weight is reported in mg. The control was the vehicle given twice a week. The imidazo [4,5-b]pyridine-2-carbamic acid, methyl ester was also given on this same schedule. Both compounds were administered by oral gavage.", "data": [{"smiles": "COC(=O)Nc1nc2ncccc2[nH]1", "note": "[pyridinyl, imidazo [4,5-b]pyridine-2-carbamic acid, methyl ester]", "values": [{"measurement": "Average Tumor Weight on Day 1", "setting": "1000 mg/kg p.o. twice a week", "result": 75.4, "unit": "mg"}, {"measurement": "Average Tumor Weight on Day 5", "setting": "1000 mg/kg p.o. twice a week", "result": 97.2, "unit": "mg"}, {"measurement": "Average Tumor Weight on Day 8", "setting": "1000 mg/kg p.o. twice a week", "result": 138.2, "unit": "mg"}, {"measurement": "Average Tumor Weight on Day 11", "setting": "1000 mg/kg p.o. twice a week", "result": 172.1, "unit": "mg"}, {"measurement": "Average Tumor Weight on Day 15", "setting": "1000 mg/kg p.o. twice a week", "result": 220.1, "unit": "mg"}, {"measurement": "Average Tumor Weight on Day 18", "setting": "1000 mg/kg p.o. twice a week", "result": 281.6, "unit": "mg"}, {"measurement": "Average Tumor Weight on Day 23", "setting": "1000 mg/kg p.o. twice a week", "result": 340.6, "unit": "mg"}, {"measurement": "Average Tumor Weight on Day 26", "setting": "1000 mg/kg p.o. twice a week", "result": 407.6, "unit": "mg"}, {"measurement": "Average Tumor Weight on Day 30", "setting": "1000 mg/kg p.o. twice a week", "result": 515.6, "unit": "mg"}, {"measurement": "Average Tumor Weight on Day 33", "setting": "1000 mg/kg p.o. twice a week, day 33", "result": 562, "unit": "mg"}, {"measurement": "Average Tumor Weight on Day 37", "setting": "1000 mg/kg p.o. twice a week, day 37", "result": 828.3, "unit": "mg"}, {"measurement": "Average Tumor Weight on Day 40", "setting": "1000 mg/kg p.o. twice a week, day 40", "result": 533.7, "unit": "mg"}, {"measurement": "Average Tumor Weight on Day 44", "setting": "1000 mg/kg p.o. twice a week, day 44", "result": 714.4, "unit": "mg"}, {"measurement": "Average Tumor Weight on Day 47", "setting": "1000 mg/kg p.o. twice a week, day 47", "result": 656.8, "unit": "mg"}, {"measurement": "Average Tumor Weight on Day 51", "setting": "1000 mg/kg p.o. twice a week, day 51", "result": 763.6, "unit": "mg"}, {"measurement": "Average Tumor Weight on Day 54", "setting": "1000 mg/kg p.o. twice a week, day 54", "result": 793.3, "unit": "mg"}, {"measurement": "Average Tumor Weight on Day 58", "setting": "1000 mg/kg p.o. twice a week, day 58", "result": 919, "unit": "mg"}, {"measurement": "Average Tumor Weight on Day 1", "setting": "2500 mg/kg p.o. twice a week", "result": 76.2, "unit": "mg"}, {"measurement": "Average Tumor Weight on Day 5", "setting": "2500 mg/kg p.o. twice a week", "result": 62.6, "unit": "mg"}, {"measurement": "Average Tumor Weight on Day 8", "setting": "2500 mg/kg p.o. twice a week", "result": 115.2, "unit": "mg"}, {"measurement": "Average Tumor Weight on Day 11", "setting": "2500 mg/kg p.o. twice a week", "result": 101.1, "unit": "mg"}, {"measurement": "Average Tumor Weight on Day 15", "setting": "2500 mg/kg p.o. twice a week", "result": 196, "unit": "mg"}, {"measurement": "Average Tumor Weight on Day 18", "setting": "2500 mg/kg p.o. twice a week", "result": 126, "unit": "mg"}, {"measurement": "Average Tumor Weight on Day 23", "setting": "2500 mg/kg p.o. twice a week", "result": 256, "unit": "mg"}, {"measurement": "Average Tumor Weight on Day 26", "setting": "2500 mg/kg p.o. twice a week", "result": 171.5, "unit": "mg"}, {"measurement": "Average Tumor Weight on Day 1", "setting": "1500 m/kg p.o. twice a week", "result": 76.6, "unit": "mg"}, {"measurement": "Average Tumor Weight on Day 5", "setting": "1500 m/kg p.o. twice a week", "result": 76.1, "unit": "mg"}, {"measurement": "Average Tumor Weight on Day 8", "setting": "1500 m/kg p.o. twice a week", "result": 94.4, "unit": "mg"}, {"measurement": "Average Tumor Weight on Day 11", "setting": "1500 m/kg p.o. twice a week", "result": 130, "unit": "mg"}, {"measurement": "Average Tumor Weight on Day 15", "setting": "1500 m/kg p.o. twice a week", "result": 166.3, "unit": "mg"}, {"measurement": "Average Tumor Weight on Day 18", "setting": "1500 m/kg p.o. twice a week", "result": 189.3, "unit": "mg"}, {"measurement": "Average Tumor Weight on Day 23", "setting": "1500 m/kg p.o. twice a week", "result": 242.3, "unit": "mg"}, {"measurement": "Average Tumor Weight on Day 26", "setting": "1500 m/kg p.o. twice a week", "result": 264, "unit": "mg"}, {"measurement": "Average Tumor Weight on Day 30", "setting": "1500 m/kg p.o. twice a week", "result": 405, "unit": "mg"}]}]}
